According to patent US12337049B2, “Method for whitening skin using composition for skin whitening” (AMOREPACIFIC CORPORATION, priority 2021, dated 2025):

What was measured:
Format in all cases: cell-based
[1] = system: melanin-producing enzymes (tyrosinase, TRP2) in normal human melanocytes; assay: Protein expression of melanin-producing enzymes (tyrosinase, TRP2) in normal human melanocytes without inducer; details: no inducer, 0.001-100 nM, 4 days
Experimental: (§1) Normal human melanocytes are placed on a 6-well plate, and the next day, the medium is changed to a melanocyte-free melanocyte medium. At this time, they are treated with each composition including the compound represented by Chemical Formula 1-1 (Cayman chemical) in an amount of 0 nM, 0.001 nM, 0.01 nM, 0.1 nM, 1 nM, 10 nM, and 100 nM, respectively (based on the total amount of the composition). After culturing for 4 days, the cells are broken using a lysis buffer in each well and then the proteins are separated. Subsequently, the separated proteins are measured with respect to relative protein expression levels by using a specific antibody for tyrosinase which is a melanin-producing enzyme from, TRP2 (tyrosinase related protein 2).

[2] = system: melanin-producing enzyme (tyrosinase, TRP2) in normal human melanocytes; assay: Increase in protein expression of melanin-producing enzyme (tyrosinase, TRP2) by pigmentation inducer (α-MSH); details: 500 nM α-MSH, 0.001-100 nM, 4 days, FIGS. 4 to 6
Experimental: as §1, with “PMA-free” for “melanocyte-free”, “composition) along with 500 nM pigmentation inducer (α-MSH).” for “composition).”, “TRP2 (tyrosinase related protein 2),” for “tyrosinase”, “enzyme.” for “enzyme from, TRP2 (tyrosinase related protein 2).”

[3] = system: melanin-producing enzyme (tyrosinase, TRP2) in normal human melanocytes; assay: Increase in protein expression of melanin-producing enzyme (tyrosinase, TRP2) by pigmentation inducer (IBMX); details: 100 μM IBMX, 0.001-100 nM, 4 days, FIGS. 7 to 9
Experimental: as §1, with “PMA-free” for “melanocyte-free”, “composition) along with 100 μM pigmentation inducer (IBMX).” for “composition).”, “TRP2 (tyrosinase related protein 2),” for “tyrosinase”, “enzyme.” for “enzyme from, TRP2 (tyrosinase related protein 2).”

[4] = system: melanin-producing enzymes (TRP1, TRP2) in normal human melanocytes; assay: Increase in protein expression of melanin-producing enzymes (TRP1, TRP2) by C. acnes; details: 10^7 CFU/ml live C. acnes, 1 nM to 100 nM, 2 days, FIGS. 11 and 12
Experimental: Cutibacterium acnes (C. acnes, ATCC 6919) are inoculated in a BHI medium and cultured at 37° C. under anaerobic conditions for 72 hours to 96 hours, and then, the medium is collected. The collected medium is centrifuged (4° C., 10 minutes at 5,000×g), precipitating the bacteria. The precipitated bacteria are twice washed with phosphate-buffered saline (PBS) and treated up to a final concentration of 10^10 CFU/ml, preparing a live C. acnes stock, and the live C. acnes stock is cryopreserved at −80° C. Normal human melanocytes are placed on 6-well plates, and the next day, the medium is changed to a PMA-free melanocyte medium. Herein, 10^4, 10^5, 10^6, and 10^7 CFU/ml of live C. acnes are treated. After culturing for 2 days, the cells broken by using a lysis buffer in each well to separate proteins. The separated proteins are measured with respect to relative protein expression levels by using a specific antibody for TRP1 (tyrosinase related protein 1) and TRP2 (tyrosinase related protein 2), which are melanin-producing enzymes.
Normal human melanocytes are placed on 6-well plates, and the next day, the medium is changed to a PMA-free melanocyte medium. […] The separated proteins are measured with respect to relative protein expression levels by using a specific antibody for TRP1 (tyrosinase related protein 1) and TRP2 (tyrosinase related protein 2), which are melanin-producing enzymes.

Structure (SMILES): CC/C=C\C[C@H](O)/C=C/C=C\C/C=C\C=C\[C@@H](O)C/C=C\CCC(=O)O [Chemical Formula 1-1]
- increase in the protein expression of the melanin-producing enzyme (tyrosinase, TRP2) ([1]; antibody detection vs GAPDH, FIGS. 1 to 3): effectively inhibited
- increase in protein expression of the tyrosinase ([1]; concentration dependence): effectively inhibited depending on a concentration
- increase in protein expression of the melanin-producing enzyme (tyrosinase, TRP2) by α-MSH [2]: effectively inhibited
- increase in protein expression of the melanin-producing enzyme (tyrosinase, TRP2) by IBMX [3]: effectively inhibited
- increase in protein expression of the melanin-producing enzyme (TRP1, TRP2) by C. acnes [4]: effectively inhibited
